From PubChem BioAssay (NCI) come the findings set out here.

Several values for one entry are separate records, joined by “and”; a condition that tells them apart may be missing. Equal entries are not always repeated.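 Tested at 5 concentrations; 48 h exposure; 96-well plates; endpoints linearly interpolated, else capped at highest concentration. GI50 marks 50% less growth. At the TGI there is no net growth.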

The test system of one assay is RXF 393 renal. The assay is described as follows: NCI tumour cell line growth inhibition, 48 h.
`C[C@@]12C[C@@H](c3ccccc3O1)N1CCCCSC1=N2`: the TGI was over 100 µM.
Still for that read-out and setting: the figure for `C=C1c2nc3ccccc3n2C=C(c2ccccc2)N1c1ccc([N+](=O)[O-])cc1` is 16 µM; for `Cc1c2cnccc2c(C)c2c1c1ccccc1n2CCCN` it is 0.799 µM and 0.888 µM; for `O=c1[nH][nH]c(=O)n1Cc1ccccc1Cn1c(=O)[nH][nH]c1=O` it is over 100 µM.
`O=C(NNC(=O)c1ccccc1SSc1ccccc1C(=O)NNC(=O)c1ccccc1S)c1ccccc1S`: the TGI was over 100 µM.
The compound `CN1CCN([C@H]2C[C@H]3[C@@H]4CC=C5C[C@@H](O)CC[C@]5(C)[C@H]4CC[C@]3(C)C2=O)CC1` registered a TGI of over 100 µM.
Same read-out and setting: the figure for `C=C(C1=CC(=O)C(C)(C)O1)[C@@H]1CC=C([C@@H]2CC[C@H]3[C@@]2(C)CC[C@H]2C(C)(C)C(=O)[C@H](O)C[C@]32C)[C@H](O)O1` is 3.59 µM; for `CCNC(=S)N/N=C/c1cc([N+](=O)[O-])ccc1O` it is over 100 µM.
Consider `Cc1cc(O)c2c(=O)c3ccccc3[nH]c2c1`, for which the TGI is 82.8 µM.
For the compound `Oc1cccc2c(Cl)ccnc12`, the TGI amounted to 7.95 µM.
Still for that read-out and setting: for `Clc1cc(OC2C3CC4CC(C3)CC2C4)nc(Cl)n1` (stereo not given) the value was 27.4 µM.
On the same count and under the same terms, the figure for `Cc1cccc(/C=N/NC(=S)Nc2ccccc2)n1` is 28.1 µM; for `CCCN=C1CCN(Cc2ccccc2)c2ccccc2N1` it is 29.6 µM; for `CC(C)c1ccc(/C=C2/C=C(c3ccc4ccccc4c3)OC2=O)cc1` it is over 100 µM.
`COc1cc(/C=C/C(=N\NS(=O)(=O)c2ccc(C)cc2)c2sc(NNC(C)=O)nc2C)ccc1O` yielded a TGI of over 100 µM.
The same measure, in the same setting: the figure for `Oc1ccc(-c2nc(-c3cccnc3)c(-c3ccc(F)cc3)[nH]2)cc1` is 33.9 µM; for `CC(C)/C(Cl)=N\OC(=O)Nc1ccc(S(N)(=O)=O)cc1` it is 25.2 µM.
Consider `CNC(=O)OCC1=C(COC(=O)NC)C(C)N(c2ccc(OC)cc2)C1` (stereo not given), for which the TGI is over 100 µM.
`N#CC1=C(N)N(c2ccccc2)C(c2ccco2)C1(C#N)C#N` (stereo not given): the TGI is 37.1 µM.
In turn, `O=S1(=O)NC(=NCc2c[nH]c3ccccc23)N(c2ccccc2)c2ccncc21` returned a TGI of over 100 µM.
Take `Cc1ccsc1/C=N/Nc1ncccn1`: the TGI is over 100 µM.
Same read-out and setting: the figure for `Nc1cccc2cc(Cl)cnc12` is over 100 µM; for `COc1c(C)c(C/C=C(\C)CCCCO[Si](c2ccccc2)(c2ccccc2)C(C)(C)C)c(OC)c(OC)c1OC` it is over 100 µM.

Another assay has as its system BT-549 breast. The assay is described as follows: NCI tumour cell line growth inhibition, 48 h.
Regarding `C[C@@]12C[C@@H](c3ccccc3O1)N1CCCCSC1=N2`, the TGI was over 100 µM.
Still for that read-out and setting: for `C=C1c2nc3ccccc3n2C=C(c2ccccc2)N1c1ccc([N+](=O)[O-])cc1` the value was 46.4 µM; for `Cc1c2cnccc2c(C)c2c1c1ccccc1n2CCCN`, 2.85 µM.
Consider `O=c1[nH][nH]c(=O)n1Cc1ccccc1Cn1c(=O)[nH][nH]c1=O`, for which the TGI was over 100 µM.
Take `O=C(NNC(=O)c1ccccc1SSc1ccccc1C(=O)NNC(=O)c1ccccc1S)c1ccccc1S`: the TGI was 74.8 µM.
Still for that read-out and setting: for `CN1CCN([C@H]2C[C@H]3[C@@H]4CC=C5C[C@@H](O)CC[C@]5(C)[C@H]4CC[C@]3(C)C2=O)CC1` the value was over 100 µM; for `C=C(C1=CC(=O)C(C)(C)O1)[C@@H]1CC=C([C@@H]2CC[C@H]3[C@@]2(C)CC[C@H]2C(C)(C)C(=O)[C@H](O)C[C@]32C)[C@H](O)O1`, 21.6 µM; for `CCNC(=S)N/N=C/c1cc([N+](=O)[O-])ccc1O`, over 100 µM.
The compound `Cc1cc(O)c2c(=O)c3ccccc3[nH]c2c1` returned a TGI of 85.3 µM.
The compound `Oc1cccc2c(Cl)ccnc12` had a TGI of over 100 µM.
Regarding `Clc1cc(OC2C3CC4CC(C3)CC2C4)nc(Cl)n1` (stereo not given), the TGI is 52.4 µM.
Still for that read-out and setting: the figure for `Cc1cccc(/C=N/NC(=S)Nc2ccccc2)n1` is 75 µM.
Same read-out and setting: for `CCCN=C1CCN(Cc2ccccc2)c2ccccc2N1` the value was 34.3 µM; for `CC(C)c1ccc(/C=C2/C=C(c3ccc4ccccc4c3)OC2=O)cc1`, over 100 µM; for `COc1cc(/C=C/C(=N\NS(=O)(=O)c2ccc(C)cc2)c2sc(NNC(C)=O)nc2C)ccc1O`, over 100 µM.
Regarding `Oc1ccc(-c2nc(-c3cccnc3)c(-c3ccc(F)cc3)[nH]2)cc1`, the TGI was 32.6 µM.
The same measure, in the same setting: the figure for `CC(C)/C(Cl)=N\OC(=O)Nc1ccc(S(N)(=O)=O)cc1` is 21.3 µM; for `CNC(=O)OCC1=C(COC(=O)NC)C(C)N(c2ccc(OC)cc2)C1` (stereo not given) it is over 100 µM; for `N#CC1=C(N)N(c2ccccc2)C(c2ccco2)C1(C#N)C#N` (stereo not given) it is 37.4 µM.
On the same count and under the same terms, the figure for `O=S1(=O)NC(=NCc2c[nH]c3ccccc23)N(c2ccccc2)c2ccncc21` is over 100 µM; for `Cc1ccsc1/C=N/Nc1ncccn1` it is over 100 µM.
In turn, `Nc1cccc2cc(Cl)cnc12` gave a TGI of over 100 µM.
`COc1c(C)c(C/C=C(\C)CCCCO[Si](c2ccccc2)(c2ccccc2)C(C)(C)C)c(OC)c(OC)c1OC` had a TGI of over 46.4 µM.

A further assay has as its system A549 NSCLC. The assay is described as follows: NCI tumour cell line growth inhibition, 48 h.
`C=C1c2nc3ccccc3n2C=C(c2ccccc2)N1c1ccc([N+](=O)[O-])cc1` registered a TGI of 13.5 µM.
Take `Cc1c2cnccc2c(C)c2c1c1ccccc1n2CCCN`: the GI50 is 0.0471 µM; the TGI was 1.29 µM and 0.447 µM.
For `O=c1[nH][nH]c(=O)n1Cc1ccccc1Cn1c(=O)[nH][nH]c1=O`, the TGI was over 100 µM.
As for `O=C(NNC(=O)c1ccccc1SSc1ccccc1C(=O)NNC(=O)c1ccccc1S)c1ccccc1S`, the TGI is over 100 µM.
The same measure, in the same setting: for `CN1CCN([C@H]2C[C@H]3[C@@H]4CC=C5C[C@@H](O)CC[C@]5(C)[C@H]4CC[C@]3(C)C2=O)CC1` the value was over 100 µM; for `C=C(C1=CC(=O)C(C)(C)O1)[C@@H]1CC=C([C@@H]2CC[C@H]3[C@@]2(C)CC[C@H]2C(C)(C)C(=O)[C@H](O)C[C@]32C)[C@H](O)O1`, 30.7 µM.
Same read-out and setting: the figure for `CCNC(=S)N/N=C/c1cc([N+](=O)[O-])ccc1O` is over 100 µM; for `Cc1cc(O)c2c(=O)c3ccccc3[nH]c2c1` it is over 100 µM; for `Oc1cccc2c(Cl)ccnc12` it is over 100 µM.
On the same count and under the same terms, the figure for `Clc1cc(OC2C3CC4CC(C3)CC2C4)nc(Cl)n1` (stereo not given) is 95.9 µM; for `Cc1cccc(/C=N/NC(=S)Nc2ccccc2)n1` it is over 100 µM.
In turn, `CCCN=C1CCN(Cc2ccccc2)c2ccccc2N1` came in with a TGI of over 100 µM.
In the case of `CC(C)c1ccc(/C=C2/C=C(c3ccc4ccccc4c3)OC2=O)cc1`, the TGI was over 100 µM.
`COc1cc(/C=C/C(=N\NS(=O)(=O)c2ccc(C)cc2)c2sc(NNC(C)=O)nc2C)ccc1O` had a TGI of over 100 µM.
The same measure, in the same setting: for `Oc1ccc(-c2nc(-c3cccnc3)c(-c3ccc(F)cc3)[nH]2)cc1` the value was 65 µM; for `CC(C)/C(Cl)=N\OC(=O)Nc1ccc(S(N)(=O)=O)cc1`, 37.9 µM.
Same read-out and setting: the figure for `CNC(=O)OCC1=C(COC(=O)NC)C(C)N(c2ccc(OC)cc2)C1` (stereo not given) is over 100 µM; for `N#CC1=C(N)N(c2ccccc2)C(c2ccco2)C1(C#N)C#N` (stereo not given) it is over 100 µM; for `O=S1(=O)NC(=NCc2c[nH]c3ccccc23)N(c2ccccc2)c2ccncc21` it is over 100 µM.
Turning to `Cc1ccsc1/C=N/Nc1ncccn1`, the TGI was over 100 µM.
Same read-out and setting: the figure for `Nc1cccc2cc(Cl)cnc12` is over 100 µM.
The same measure, in the same setting: for `COc1c(C)c(C/C=C(\C)CCCCO[Si](c2ccccc2)(c2ccccc2)C(C)(C)C)c(OC)c(OC)c1OC` the value was 51 µM.

For the next assay, the system named is HCT-15 colon. Description: NCI tumour cell line growth inhibition, 48 h.
`C[C@@]12C[C@@H](c3ccccc3O1)N1CCCCSC1=N2`: the TGI was over 100 µM.
